According to EP0326331B1, “Substituted quinolines and cinnolines” (Dow AgroSciences LLC, priority 1988, dated 1989):

Assays:
Assay type in all cases: in vivo
[1] = system: Erysiphe graminis tritici (powdery mildew); assay: Test 1 greenhouse foliar spray screen, powdery mildew on wheat; details: disease control rating, foliar spray on wheat, 400 ppm (+++ at 100 ppm)
[2] = system: Pyricularia oryzae (rice blast); assay: whole plant or invertebrate; details: disease control rating, foliar spray on rice, 400 ppm (+++ at 100 ppm)
[3] = system: Puccinia recondita tritici (leaf rust); assay: Test 1 greenhouse foliar spray screen, leaf rust on wheat; details: disease control rating, foliar spray on wheat, 400 ppm (+++ at 100 ppm)
[4] = system: Botrytis cinerea (gray mold); assay: Test 1 greenhouse foliar spray screen, gray mold on grape berries; details: disease control rating, spray on grape berries, 400 ppm (+++ at 100 ppm)
[5] = system: Pseudoperonospora cubensis (downy mildew); assay: Test 1 greenhouse foliar spray screen, downy mildew on squash; details: disease control rating, foliar spray on squash, 400 ppm (+++ at 100 ppm)
[6] = system: Cercospora beticola (leaf spot); assay: Test 1 greenhouse foliar spray screen, leaf spot on sugar beet; details: disease control rating, foliar spray on sugar beet, 400 ppm (+++ at 100 ppm)
[7] = system: Venturia inaequalis (apple scab); assay: Test 1 greenhouse foliar spray screen, apple scab on apple seedling; details: disease control rating, foliar spray on apple seedling, 400 ppm (+++ at 100 ppm)
[8] = system: Septoria tritici (leaf blotch); assay: Test 1 greenhouse foliar spray screen, leaf blotch on wheat; details: disease control rating, foliar spray on wheat, 400 ppm (+++ at 100 ppm)
[9] = system: southern armyworm (Spodopetra eridania Cramer); assay: Mite/insect screen, SAW; details: Spodoptera eridania, foliar, percent mortality, foliar spray on squash, read-out: SAW RESULTS %; for mortality at 200 ppm: rate 200 ppm; for mortality at 400 ppm: rate 400 ppm
Summary of the method: (§1)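 Read-out: percent mortality after standard exposure periods. Test solutions were water dilutions of compound dissolved in acetone/alcohol (50:50) with emulsifier blends; leaves were sprayed to runoff on both surfaces and air-dried for one hour before exposure.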

[10] = system: Twospotted spider mites (Tetranychus urticae Koch); assay: Mite/insect screen, SM; details: Tetranychus urticae, foliar, percent mortality, foliar spray on squash, read-out: SM RESULTS %; for mortality at 200 ppm: rate 200 ppm; for mortality at 400 ppm: rate 400 ppm
Summary of the method: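 Foliar spray to runoff (10 psi), 1 h drying; aqueous dilutions from acetone/alcohol emulsifier stock. Mortality (%) after standard exposure.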

[11] = system: melon aphids (Aphis gossypii Glover); assay: Mite/insect screen, MA; details: Aphis gossypii, foliar, percent mortality, foliar spray on squash, read-out: MA RESULTS %; for mortality at 200 ppm: rate 200 ppm; for mortality at 400 ppm: rate 400 ppm
Summary of the method: as §1

[12] = system: corn rootworm; assay: Mite/insect screen, CRW; details: percent mortality, read-out: CRW RESULTS %; for mortality at 12 ppm: CRW rate 12.00 ppm; for mortality at 24 ppm: CRW rate 24.00 ppm
Summary of the method: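 Read-out: % mortality after standard exposure. Formulation: acetone/alcohol (50:50) with emulsifiers at 23 g and 13 g per liter, water-diluted to final test levels.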

SMILES: CC(Cc1cccs1)Nc1ccnc2c(F)cccc12 (centres unmarked) [Example 170, 8-fluoro-N-[1-methyl-2-(2-thienyl)ethyl]-4-quinolinamine]
- POWD MDEW [1]: + (20-89% control at 400 ppm)
- RICE BLAST [2]: + (20-89% control at 400 ppm)
- LEAF RUST [3]: ++ (90-100% control at 400 ppm)
- GRAY MOLD [4]: - (0-19% control at 400 ppm)
- DOWN MDEW [5]: + (20-89% control at 400 ppm)
- LEAF SPOT [6]: - (0-19% control at 400 ppm)
- APPL SCAB [7]: - (0-19% control at 400 ppm)
- LEAF BLOT [8]: - (0-19% control at 400 ppm)
- mortality at 200 ppm [9]: 0%
- mortality at 200 ppm [10]: 0%
- mortality at 200 ppm [11]: 0%
- mortality at 12 ppm [12]: 0%

SMILES: CC(Cc1cccs1)Nc1ccnc2ccccc12 (centres unmarked) [Example 171, N-[1-methyl-2-(2-thienyl)ethyl]-4-quinolinamine]
- POWD MDEW [1]: - (0-19% control at 400 ppm)
- RICE BLAST [2]: + (20-89% control at 400 ppm)
- LEAF RUST [3]: + (20-89% control at 400 ppm)
- GRAY MOLD [4]: - (0-19% control at 400 ppm)
- DOWN MDEW [5]: + (20-89% control at 400 ppm)
- LEAF SPOT [6]: + (20-89% control at 400 ppm)
- APPL SCAB [7]: - (0-19% control at 400 ppm)
- LEAF BLOT [8]: + (20-89% control at 400 ppm)
- mortality at 200 ppm [9]: 0%
- mortality at 200 ppm [10]: 0%
- mortality at 200 ppm [11]: 0%
- mortality at 12 ppm [12]: 0%

SMILES: Clc1cccc2c(NCCc3cccs3)ccnc12 [Example 172, 8-chloro-N-[2-(2-thienyl)ethyl]-4-quinolinamine]
- POWD MDEW [1]: + (20-89% control at 400 ppm)
- RICE BLAST [2]: + (20-89% control at 400 ppm)
- LEAF RUST [3]: + (20-89% control at 400 ppm)
- GRAY MOLD [4]: - (0-19% control at 400 ppm)
- DOWN MDEW [5]: + (20-89% control at 400 ppm)
- LEAF SPOT [6]: - (0-19% control at 400 ppm)
- APPL SCAB [7]: - (0-19% control at 400 ppm)
- LEAF BLOT [8]: - (0-19% control at 400 ppm)
- mortality at 200 ppm [9]: 0%
- mortality at 200 ppm [10]: 0%
- mortality at 200 ppm [11]: 0%
- mortality at 12 ppm [12]: 0%

SMILES: Fc1cccc2c(NCCC3COc4ccccc4O3)ccnc12 (centres unmarked) [Example 174, N-[2-(2,3-dihydro-1,4-benzodioxin-2-yl)ethyl]-8-fluoro-4-quinolinamine]
- POWD MDEW [1]: + (20-89% control at 400 ppm)
- RICE BLAST [2]: + (20-89% control at 400 ppm)
- LEAF RUST [3]: ++ (90-100% control at 400 ppm)
- GRAY MOLD [4]: - (0-19% control at 400 ppm)
- DOWN MDEW [5]: +++ (90-100% control at 100 ppm)
- LEAF SPOT [6]: - (0-19% control at 400 ppm)
- APPL SCAB [7]: - (0-19% control at 400 ppm)
- LEAF BLOT [8]: + (20-89% control at 400 ppm)
- mortality at 200 ppm [9]: 0%
- mortality at 200 ppm [10]: 0%
- mortality at 200 ppm [11]: 0%
- mortality at 12 ppm [12]: 0%

SMILES: Fc1cccc2c(NCCc3ccsc3)ccnc12 [Example 175, 8-fluoro-N-[2-(3-thienyl)ethyl]-4-quinolinamine]
- POWD MDEW [1]: + (20-89% control at 400 ppm)
- RICE BLAST [2]: + (20-89% control at 400 ppm)
- LEAF RUST [3]: +++ (90-100% control at 100 ppm)
- GRAY MOLD [4]: - (0-19% control at 400 ppm)
- DOWN MDEW [5]: +++ (90-100% control at 100 ppm)
- LEAF SPOT [6]: - (0-19% control at 400 ppm)
- APPL SCAB [7]: - (0-19% control at 400 ppm)
- LEAF BLOT [8]: + (20-89% control at 400 ppm)
- mortality at 200 ppm [9]: 0%
- mortality at 200 ppm [10]: 0%
- mortality at 200 ppm [11]: 0%
- mortality at 12 ppm [12]: 0%

SMILES: Fc1cccc2c(NCCc3c[nH]c4ccccc34)ccnc12 [Example 176, 8-fluoro-N-[2-(1H-indol-3-yl)ethyl]-4-quinolinamine]
- POWD MDEW [1]: + (20-89% control at 400 ppm)
- RICE BLAST [2]: + (20-89% control at 400 ppm)
- LEAF RUST [3]: + (20-89% control at 400 ppm)
- GRAY MOLD [4]: - (0-19% control at 400 ppm)
- DOWN MDEW [5]: ++ (90-100% control at 400 ppm)
- LEAF SPOT [6]: + (20-89% control at 400 ppm)
- APPL SCAB [7]: - (0-19% control at 400 ppm)
- LEAF BLOT [8]: - (0-19% control at 400 ppm)
- mortality at 200 ppm [9]: 0%
- mortality at 200 ppm [10]: 0%
- mortality at 200 ppm [11]: 0%
- mortality at 12 ppm [12]: 0%

SMILES: CC(=O)N(CCC1=CCCCC1)c1ccnc2c(C)cc(C)cc12 [Example 179, N-[2-(1-cyclohexenyl)ethyl]-N-(6,8-dimethyl-4-quinolinyl)acetamide]
- POWD MDEW [1]: - (0-19% control at 400 ppm)
- RICE BLAST [2]: - (0-19% control at 400 ppm)
- LEAF RUST [3]: - (0-19% control at 400 ppm)
- GRAY MOLD [4]: - (0-19% control at 400 ppm)
- DOWN MDEW [5]: ++ (90-100% control at 400 ppm)
- LEAF SPOT [6]: + (20-89% control at 400 ppm)
- APPL SCAB [7]: + (20-89% control at 400 ppm)
- LEAF BLOT [8]: - (0-19% control at 400 ppm)
- mortality at 200 ppm [9]: 0%
- mortality at 400 ppm [9]: 0%
- mortality at 200 ppm [10]: 0%
- mortality at 400 ppm [10]: 0%
- mortality at 200 ppm [11]: 0%
- mortality at 400 ppm [11]: 0%
- mortality at 12 ppm [12]: 0%
- mortality at 24 ppm [12]: 0%

SMILES: Fc1cccc2c(NCCc3ccccn3)ccnc12 [Example 180, 8-fluoro-N-[2-(2-pyridinyl)ethyl]-4-quinolinamine]
- POWD MDEW [1]: ++ (90-100% control at 400 ppm)
- RICE BLAST [2]: + (20-89% control at 400 ppm)
- LEAF RUST [3]: - (0-19% control at 400 ppm)
- GRAY MOLD [4]: - (0-19% control at 400 ppm)
- DOWN MDEW [5]: ++ (90-100% control at 400 ppm)
- LEAF SPOT [6]: + (20-89% control at 400 ppm)
- APPL SCAB [7]: - (0-19% control at 400 ppm)
- LEAF BLOT [8]: + (20-89% control at 400 ppm)
- mortality at 200 ppm [9]: 0%
- mortality at 400 ppm [9]: 0%
- mortality at 200 ppm [10]: 0%
- mortality at 400 ppm [10]: 0%
- mortality at 200 ppm [11]: 0%
- mortality at 400 ppm [11]: 0%
- mortality at 12 ppm [12]: 0%
- mortality at 24 ppm [12]: 0%

SMILES: Fc1cccc2c(NCCc3ccccc3)cc(NCCc3ccccc3)nc12 [Example 183, 8-fluoro-N,N'-bis(2-phenylethyl)-2,4-quinolinediamine]
- POWD MDEW [1]: - (0-19% control at 400 ppm)
- RICE BLAST [2]: ++ (90-100% control at 400 ppm)
- LEAF RUST [3]: ++ (90-100% control at 400 ppm)
- GRAY MOLD [4]: - (0-19% control at 400 ppm)
- DOWN MDEW [5]: +++ (90-100% control at 100 ppm)
- LEAF SPOT [6]: + (20-89% control at 400 ppm)
- APPL SCAB [7]: + (20-89% control at 400 ppm)
- LEAF BLOT [8]: - (0-19% control at 400 ppm)
- mortality at 200 ppm [9]: 0%
- mortality at 200 ppm [10]: 0%
- mortality at 200 ppm [11]: 0%
- mortality at 12 ppm [12]: 0%
